# Laboratory results taken from US11046728B2, “Neuroactive steroids, compositions, and uses thereof” (Sage Therapeutics, Inc., priority 2013, dated 2021).
# How the values were obtained:
# [1] = target: TBPS binding, rat brain cortical membranes in the presence of 5 μM GABA; test: 35S-TBPS displacement (steroid inhibition of TBPS binding); details: read-out: 35S-TBPS Radioligand Displacement (IC50)
# Experimental: TBPS binding assays using rat brain cortical membranes in the presence of 5 μM GABA has been described (Gee et al, J. Pharmacol. Exp. Then 1987, 241, 346-353; Hawkinson et al, Mol. Pharmacol. 1994, 46, 977-985). Briefly, cortices are rapidly removed following decapitation of carbon dioxide-anesthetized Sprague-Dawley rats (200-250 g). The cortices are homogenized in 10 volumes of ice-cold 0.32 M sucrose using a glass/teflon homogenizer and centrifuged at 1500×g for 10 min at 4° C. The resultant supernatants are centrifuged at 10,000×g for 20 min at 4° C. to obtain the P2 pellets. The P2 pellets are resuspended in 200 mM NaCl/50 mM Na—K phosphate pH 7.4 buffer and centrifuged at 10,000×g for 10 min at 4° C. This washing procedure is repeated twice and the pellets are resuspended in 10 volumes of buffer. Aliquots (100 μL) of the membrane suspensions are incubated with 3 nM [^35S]-TBPS and 5 μL, aliquots of test drug dissolved in dimethyl sulfoxide (DMSO) (final 0.5%) in the presence of 5 μM GABA. The incubation is brought to a final volume of 1.0 mL with buffer. Nonspecific binding is determined in the presence of 2 μM unlabeled TBPS and ranged from 15 to 25%. Following a 90 min incubation at room temp, the assays are terminated by filtration through glass fiber filters (Schleicher and Schuell No. 32) using a cell harvester (Braudel) and rinsed three times with ice-cold buffer. Filter bound radioactivity is measured by liquid scintillation spectrometry. Non-linear curve fitting of the overall data for each drug averaged for each concentration is done using Prism (GraphPad). […] The concentration of test compound producing 50% inhibition (IC50) of specific binding and the maximal extent of inhibition (Imax) are determined for the individual experiments with the same model used for the overall data and then the means±SEMs of the individual experiments are calculated.
# Various compounds are or can be screened to determine their potential as modulators of ^35S-TBPS binding in vitro. These assays are or can be performed in accordance with the above discussed procedures.
# [2] = target: T1, GABA receptor α1β2γ2 (Homo sapiens, UniProt P14867+P47870); test: Patch clamp electrophysiology, Qpatch in Ltk cells; assay type: cell-based; details: 10 μM test article, GABA EC20 = 2 μM, read-out: GABA (α1β2γ2) Qpatch in Ltk, % efficacy at 10 μM
# T1 construct: expressed in transfected cells; host or cells: LTK cells, stably transfected
# [3] = target: T2, GABA receptor α4β3δ (Homo sapiens, UniProt P28472+P48169); test: Patch clamp electrophysiology, manual patch in CHO cells; assay type: cell-based; details: 10 μM test article, GABA EC20 = 2 μM, read-out: GABA (α4β3δ) Manual patch in CHO, % efficacy at 10 μM
# T2 construct: expressed in transfected cells; host or cells: CHO cells, transiently transfected
# [4] = test system: male Sprague Dawley rats; test: Loss of righting reflex in rats; assay type: in vivo, rat; details: intravenous bolus 5 mg/kg
# Experimental: The plasma pharmacokinetics and a qualitative assessment of sedation were obtained in male Sprague Dawley rats according to the following procedure. Rats were dosed by intravenous bolus dose (60 seconds) via the foot dorsal vein at 5 mg/kg in an appropriate vehicle. In order to assess sedation, rats were gently restrained by hand to a lateral position for dose administration. […] If the animal was unable to return to an upright position, the time was recorded as the onset of loss of righting reflex (LRR). […] Sluggish or incomplete righting twice consecutively within a 30 second interval qualifies as a loss of righting reflex. After onset of LRR, animals were assessed every 5 minutes in the same manner. Recovery of righting reflex is defined as the ability of a rat to right itself completely within 20 seconds of being placed in dorsal recumbency. The duration of LRR is defined as the time interval between LRR and the return of righting reflex.
# [5] = test system: male beagle dogs; test: Duration of lateral recumbence in dogs; assay type: in vivo, dog; details: intravenous bolus, administered at 5 mg/kg
# Experimental: The plasma pharmacokinetics and a qualitative assessment of sedation were obtained in male beagle dogs according to the following procedure. Dogs were dosed by intravenous bolus dose (60 seconds) via the cephalic vein at doses ranging from 2 to 5 mg/kg in an appropriate vehicle. In order to assess sedation, dogs were gently restrained for dose administration. If decreased muscle tone, limb weakness, or head drop was observed during dose administration, onset of lateral recumbence was recorded. […] Sluggish or incomplete righting to the sternal position qualifies as lateral recumbence. After onset of lateral recumbence, animals were assessed every 5 minutes in the same manner. The duration of lateral recumbence was recorded as the time interval between onset of lateral recumbence and the return to sternal position.
# T2 sequence (P48169 36-554): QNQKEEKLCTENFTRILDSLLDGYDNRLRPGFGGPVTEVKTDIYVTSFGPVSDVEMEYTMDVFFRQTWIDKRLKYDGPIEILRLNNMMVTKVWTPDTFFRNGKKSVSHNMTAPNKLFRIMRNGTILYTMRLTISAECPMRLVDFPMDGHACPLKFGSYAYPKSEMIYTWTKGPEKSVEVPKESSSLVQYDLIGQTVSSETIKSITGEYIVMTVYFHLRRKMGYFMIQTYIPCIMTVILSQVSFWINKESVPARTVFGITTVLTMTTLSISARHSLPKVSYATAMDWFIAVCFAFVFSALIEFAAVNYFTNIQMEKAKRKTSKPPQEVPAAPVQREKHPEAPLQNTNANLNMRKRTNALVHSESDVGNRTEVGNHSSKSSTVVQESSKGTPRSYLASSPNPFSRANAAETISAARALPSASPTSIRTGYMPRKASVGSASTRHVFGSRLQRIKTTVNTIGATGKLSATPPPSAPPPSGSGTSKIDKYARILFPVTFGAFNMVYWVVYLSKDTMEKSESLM
# T2 sequence (P28472 26-473): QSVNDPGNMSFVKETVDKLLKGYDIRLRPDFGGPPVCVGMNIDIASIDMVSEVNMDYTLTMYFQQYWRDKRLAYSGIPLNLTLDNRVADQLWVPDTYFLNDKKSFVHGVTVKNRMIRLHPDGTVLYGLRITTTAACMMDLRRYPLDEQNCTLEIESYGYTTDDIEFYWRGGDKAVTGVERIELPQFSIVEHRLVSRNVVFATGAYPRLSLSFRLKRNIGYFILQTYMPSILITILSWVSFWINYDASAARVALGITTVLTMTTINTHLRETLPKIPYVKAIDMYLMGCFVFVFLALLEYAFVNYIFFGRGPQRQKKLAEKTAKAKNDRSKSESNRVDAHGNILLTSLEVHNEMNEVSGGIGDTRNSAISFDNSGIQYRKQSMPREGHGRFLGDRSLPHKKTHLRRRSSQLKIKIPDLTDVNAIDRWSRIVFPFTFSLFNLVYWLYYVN
# T2 sequence (O14764 25-452 partner): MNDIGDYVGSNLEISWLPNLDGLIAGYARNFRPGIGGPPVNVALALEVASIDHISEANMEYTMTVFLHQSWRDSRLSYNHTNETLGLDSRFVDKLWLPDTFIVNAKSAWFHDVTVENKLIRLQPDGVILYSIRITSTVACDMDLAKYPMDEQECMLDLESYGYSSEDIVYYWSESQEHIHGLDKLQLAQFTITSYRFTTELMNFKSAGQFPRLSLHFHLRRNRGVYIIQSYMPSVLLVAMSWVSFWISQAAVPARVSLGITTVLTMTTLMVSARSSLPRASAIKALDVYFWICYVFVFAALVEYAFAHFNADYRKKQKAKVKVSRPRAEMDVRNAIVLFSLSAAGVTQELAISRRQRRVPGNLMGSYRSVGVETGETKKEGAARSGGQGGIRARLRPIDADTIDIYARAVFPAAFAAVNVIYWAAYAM
# T1 sequence (P14867 28-456): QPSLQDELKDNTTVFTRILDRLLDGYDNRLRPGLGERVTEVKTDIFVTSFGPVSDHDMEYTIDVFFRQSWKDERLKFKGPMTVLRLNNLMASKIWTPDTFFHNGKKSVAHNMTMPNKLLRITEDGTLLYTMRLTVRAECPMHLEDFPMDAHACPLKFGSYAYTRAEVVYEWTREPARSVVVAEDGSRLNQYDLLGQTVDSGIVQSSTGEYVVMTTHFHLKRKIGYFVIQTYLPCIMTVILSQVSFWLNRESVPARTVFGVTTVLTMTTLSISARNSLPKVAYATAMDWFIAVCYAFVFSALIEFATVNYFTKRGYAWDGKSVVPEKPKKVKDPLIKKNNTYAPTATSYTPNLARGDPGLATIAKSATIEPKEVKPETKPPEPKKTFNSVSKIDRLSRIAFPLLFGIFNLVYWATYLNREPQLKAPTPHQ
# T1 sequence (P47870 25-512 limits assumed): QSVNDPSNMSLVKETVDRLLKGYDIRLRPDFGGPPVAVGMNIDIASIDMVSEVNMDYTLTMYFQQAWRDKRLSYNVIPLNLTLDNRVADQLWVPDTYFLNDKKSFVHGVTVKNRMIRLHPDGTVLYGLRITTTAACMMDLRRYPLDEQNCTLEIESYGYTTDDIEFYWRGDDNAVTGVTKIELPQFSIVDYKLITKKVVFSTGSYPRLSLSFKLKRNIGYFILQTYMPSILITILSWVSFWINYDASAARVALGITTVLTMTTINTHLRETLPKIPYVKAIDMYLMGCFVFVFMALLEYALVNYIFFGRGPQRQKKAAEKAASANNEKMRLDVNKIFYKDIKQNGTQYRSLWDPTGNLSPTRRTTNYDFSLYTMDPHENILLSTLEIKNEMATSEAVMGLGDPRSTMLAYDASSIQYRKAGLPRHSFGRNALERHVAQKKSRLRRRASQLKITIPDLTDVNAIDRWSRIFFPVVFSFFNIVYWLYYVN
# T1 sequence (P18507 40-475 partner): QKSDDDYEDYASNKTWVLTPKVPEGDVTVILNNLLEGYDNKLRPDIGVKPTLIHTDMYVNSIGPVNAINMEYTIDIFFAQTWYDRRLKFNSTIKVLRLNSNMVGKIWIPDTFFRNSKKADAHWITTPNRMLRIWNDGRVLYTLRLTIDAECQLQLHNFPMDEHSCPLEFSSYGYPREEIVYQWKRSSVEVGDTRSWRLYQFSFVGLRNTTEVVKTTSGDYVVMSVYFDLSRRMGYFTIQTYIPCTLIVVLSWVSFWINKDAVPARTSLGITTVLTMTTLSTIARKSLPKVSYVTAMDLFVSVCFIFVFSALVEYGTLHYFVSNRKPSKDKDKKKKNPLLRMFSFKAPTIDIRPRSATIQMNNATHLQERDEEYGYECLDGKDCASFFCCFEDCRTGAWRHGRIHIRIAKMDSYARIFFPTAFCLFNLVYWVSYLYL
Compound,IC50 [1] [nM],Emax at 10 µM [2] [%],Emax at 10 µM [3] [%],Duration of LRR (min) [4],Duration of Lateral Recumbence (min) [5]
CO[C@H]1C[C@@]2(C)[C@@H](CC[C@H]3[C@@H]4CC[C@H](C#N)[C@@]4(C)CC(=O)[C@@H]32)C[C@@H]1O [Compound 3],> 500,100 to 500,100 to 500,A (“A” indicates the duration of LRR to be <10 min),A (“A” indicates the duration to be >20 minutes)
C[C@]12CC[C@@H](O)C[C@H]1CC[C@@H]1[C@@H]2[C@@H](O)C[C@]2(C)[C@@H](C#N)CC[C@@H]12 [Compound 9],> 500,100 to 500,10 to 100,–,–
CCCO[C@H]1C[C@@]2(C)[C@@H](CC[C@@H]3[C@@H]2CC[C@]2(C)[C@@H](C#N)CC[C@@H]32)C[C@@H]1O [Compound 16],< 10,> 500,100 to 500,C (“C” indicates the duration of LRR to be >20 minutes),–
CCO[C@H]1C[C@@]2(C)[C@@H](CC[C@H]3[C@@H]4CC[C@H](C#N)[C@@]4(C)CC(=O)[C@@H]32)C[C@@H]1O [Compound 19],50 to 100,> 500,–,B (“B” indicates the duration of LRR to be 10-20 minutes),A (“A” indicates the duration to be >20 minutes)
CO[C@H]1C[C@]2(C)[C@@H](C#N)CC[C@H]2[C@@H]2CC[C@H]3C[C@H](O)CC[C@]3(C)[C@H]21 [Compound 31],10 to 50,> 500,100 to 500,B (“B” indicates the duration of LRR to be 10-20 minutes),A (“A” indicates the duration to be >20 minutes)
CO[C@H]1C[C@]2(C)[C@@H](C#N)CC[C@H]2[C@@H]2CC[C@H]3C[C@H](O)[C@@H](C)C[C@]3(C)[C@H]21 [Compound 51],10 to 50,> 500,–,C (“C” indicates the duration of LRR to be >20 minutes),–
